Converted amounts (≈) assume the structure as drawn. Starred links: 1 amine or outer side, 2 acyl side, 3 side chain; linkers in the order of their positions; H or OH if unused. Non-standard residues stand in square brackets, D forms with d. Residues, ends and D or L forms follow the SMILES beside them. X3 = O=C(c1cccc(N=Nc2ccc(CN[*:1])cc2)c1)[*:2]
Legend:
[1] = Maximum solubility in fibrillization buffer; assay type: physicochemical; details: 50 mM Na2HPO4 buffer (pH 7.4), UV-Vis absorption (ε = 49310 M-1cm-1 at 205 nm for PTH25-37, ε = 13000 M-1cm-1 at 327 nm for 3,4'-AMPB peptides)
Experimental: ThT-monitored fibrillization assays of artificial peptides and mixtures with PTH25–37 were investigated by fluorescence intensity measurements using thioflavin T (ThT) as fluorescent dye. Lyophilized peptides were dissolved in 50 mM Na2HPO4 buffer solution with a pH value of 7.4 in a concentration of 2 mg/mL and kept on ice for the next steps. The samples were centrifuged at 13,000× […] for 10 s and the concentrations were determined with a JASCO V-660 absorbance spectrometer (JASCO, Pfungstadt, Germany; PTH25–37 by absorbance at 205 nm and the molar extinction coefficient of 49,310 cm^−1M^−1; trans-AzoPTH25–37 by absorbance at 327 nm and the molar extinction coefficient of 13,000 cm^−1M^−1). Cis-AzoPTH25–37 was produced as described before. The solutions were centrifuged at 10,000 rpm for 1 h at 4 °C, the supernatant was transferred to another tube. The protein solutions were mixed in the desired ration and diluted with 50 mM Na2HPO4 buffer (pH 7.4) to obtain final concentrations of 0/100 μM PTH25–37, 50 μM ThT, and 0/10/20/50/100 μM AzoPTH25–37. For each sample, a total volume of 480 μL was prepared and 3 × 150 μL were transferred to a medium binding 96-well plate (Greiner Bio-One, Kremsmünster, Austria). The plate was sealed with a microplate cover. The fluorescence intensity was monitored at 37 °C using a BMG FLUOStar Omega multi-mode plate reader (BMG LABTECH, Ortenberg, Germany) using fluorescence excitation and emission wavelengths at 460 nm and 485 nm, respectively. One measurement cycle of 5 min consisted of double-orbital shaking for 150 s and incubating for 150 s.
2. Peptide Characterisation
Table S1: Primary sequence and solubility in 50 mM Na2PO4 buffer (pH 7.4) of peptides AzoPTH25-37 and SP1-
peptide primary sequencea solubility [μM]b
a Azo = 3,4’-AMPB; b maximum solubility was determined via UV-Vis absorption spectroscopy
2.2. HPLC- and MALDI-ToF-data
Figure S1: (A) HPLC-trace of AzoPTH25-37 (cis-isomer at 5.353, trans-isomer at 5.530). (B) MALDI-spectrum

[2] = in the dark; ref [41],[42]; cited from earlier work
[3] = assay type: physicochemical
Text: We first studied the photophysical properties of the cis-trans-isomerization of AzoPTH25–37 (Figure 1b) by UV/Vis spectroscopy and HPLC analysis in pure water in order to minimize effects of a potential self-assembly and to quantify the generated amounts of the respective cis/trans-modified peptides before and after photoswitching. The UV/Vis spectra for the pure isomers (Figure S6) were separated from the spectra of trans-enriched AzoPTH25–37 in the thermodynamically stable state after synthesis and in the cis-enriched photostationary state (PSS, Figure 3) with Wolfram Mathematica 12.2. […] Both isomers display two isobestic points at 278 nm and 388 nm. They represent in the thermodynamically stable state a cis-trans ratio of 3:97. Under irradiation with UV light (340 nm), the cis-content could be increased of up to 82% in the cis-enriched PSS. Visible light (405 nm) yields 76% of the trans-isomer in the trans-enriched PSS via the back reaction. The difference of the trans-content between the trans-enriched PSS at 405 nm and the thermodynamically stable state arises from the overlapping of the n → π* transitions of both isomers at this wavelength. The rate of thermal cis-to-trans isomerization of AzoPTH25–37 follows first-order kinetics, and was determined by monitoring the increase of the π → π* absorption band at 327 nm (Figure S7) via time-dependent UV measurements.
2.3. […]

[4] = ThT-monitored fibrillization assay of the pure peptides; assay type: physicochemical; details: pure peptide 100 μM; 50 μM ThT; 50 mM Na2HPO4, pH 7.4; 37 °C; fluorescence ex 460 nm/em 485 nm; average of triplets
Experimental: ThT-monitored fibrillization assays of artificial peptides and mixtures with PTH25–37 were investigated by fluorescence intensity measurements using thioflavin T (ThT) as fluorescent dye. Lyophilized peptides were dissolved in 50 mM Na2HPO4 buffer solution with a pH value of 7.4 in a concentration of 2 mg/mL and kept on ice for the next steps. The samples were centrifuged at 13,000× […] for 10 s and the concentrations were determined with a JASCO V-660 absorbance spectrometer (JASCO, Pfungstadt, Germany; PTH25–37 by absorbance at 205 nm and the molar extinction coefficient of 49,310 cm^−1M^−1; trans-AzoPTH25–37 by absorbance at 327 nm and the molar extinction coefficient of 13,000 cm^−1M^−1). Cis-AzoPTH25–37 was produced as described before. […] The fluorescence intensity was monitored at 37 °C using a BMG FLUOStar Omega multi-mode plate reader (BMG LABTECH, Ortenberg, Germany) using fluorescence excitation and emission wavelengths at 460 nm and 485 nm, respectively. […]
In order to determine the kinetics of fibril formation of both modified AzoPTH25–37 isomers a thioflavin T (ThT)-monitored fibrillization assay was conducted and compared to PTH25–37. […] Causing a large red shift of fluorescence excitation of ThT, which in turn enables the selective excitation of amyloid fibril-bound ThT and therefore the in situ observation of fibril formation. […]

Row | Compound | solubility (maximum solubility) [1] | further results
1 | NCc1ccc(N=Nc2cccc(C(=O)O)c2)cc1 [3,4′-AMPB, 3-{[(4-aminomethyl)phenyl]diazenyl}benzoic acid] |  | half-life time of thermal back-isomerization of the photoswitch [2]: more than 20 h
2 | CC(C)C[C@H](NC(=O)[C@H](C)NC(=O)[C@@H](NC(=O)[C@H](Cc1ccccc1)NC(=O)[C@H](CC(N)=O)NC(=O)[C@H](Cc1c[nH]cn1)NC(=O)c1cccc(N=Nc2ccc(CNC(=O)[C@H](CC(=O)O)NC(=O)[C@H](CCC(N)=O)NC(=O)[C@H](CC(C)C)NC(=O)[C@H](CCCCN)NC(=O)[C@H](CCCCN)NC(=O)[C@@H](N)CCCNC(=N)N)cc2)c1)C(C)C)C(=O)O [AzoPTH25–37] (H-RKKLQD[X3]HNFVAL-OH) | 240 µM (≈ 409 µg/mL) | solubility (maximum solubility) ([1]; listed as AzoPTH25-37): 250 µM (≈ 426 µg/mL); photostability in the dark [3]: more than 20 h
3 | CC(C)C[C@H](NC(=O)[C@H](C)NC(=O)[C@@H](NC(=O)[C@H](Cc1ccccc1)NC(=O)[C@H](CC(N)=O)NC(=O)[C@H](Cc1c[nH]cn1)NC(=O)[C@@H](NC(=O)[C@H](CC(=O)O)NC(=O)[C@H](CCC(N)=O)NC(=O)[C@H](CC(C)C)NC(=O)[C@H](CCCCN)NC(=O)[C@H](CCCCN)NC(=O)[C@@H](N)CCCNC(=N)N)C(C)C)C(C)C)C(=O)O [PTH25–37] (H-RKKLQDVHNFVAL-OH) | > 1000 µM | tchar (time at which 50% of the maximum fluorescence was reached) [4]: 10.9 h; tlag (lag time, time before an increase in the fluorescence signal occurs) [4]: 7.2 h

More lines, main results first:

Row | solubility (maximum solubility) [1] | Compound | further results
4 | 35 µM (≈ 59.2 µg/mL) | CC(C)C[C@H](NC(=O)[C@H](C)NC(=O)[C@@H](NC(=O)[C@H](Cc1ccccc1)NC(=O)[C@H](CC(N)=O)NC(=O)[C@H](Cc1c[nH]cn1)NC(=O)[C@@H](NC(=O)c1cccc(N=Nc2ccc(CNC(=O)[C@H](CCC(N)=O)NC(=O)[C@H](CC(C)C)NC(=O)[C@H](CCCCN)NC(=O)[C@H](CCCCN)NC(=O)[C@@H](N)CCCNC(=N)N)cc2)c1)C(C)C)C(C)C)C(=O)O [SP3] (H-RKKLQ[X3]VHNFVAL-OH) | 
5 | 55 µM (≈ 99.3 µg/mL) | CC(C)C[C@H](NC(=O)[C@H](C)NC(=O)[C@@H](NC(=O)[C@H](Cc1ccccc1)NC(=O)[C@H](CC(N)=O)NC(=O)[C@H](Cc1c[nH]cn1)NC(=O)c1cccc(N=Nc2ccc(CNC(=O)[C@@H](NC(=O)[C@H](CC(=O)O)NC(=O)[C@H](CCC(N)=O)NC(=O)[C@H](CC(C)C)NC(=O)[C@H](CCCCN)NC(=O)[C@H](CCCCN)NC(=O)[C@@H](N)CCCNC(=N)N)C(C)C)cc2)c1)C(C)C)C(=O)O [SP2] (H-RKKLQDV[X3]HNFVAL-OH) | 
6 | 60 µM (≈ 108 µg/mL) | CC(C)C[C@H](NC(=O)[C@H](C)NC(=O)[C@@H](NC(=O)[C@H](Cc1ccccc1)NC(=O)[C@H](CC(N)=O)NC(=O)[C@H](Cc1c[nH]cn1)NC(=O)[C@@H](NC(=O)c1cccc(N=Nc2ccc(CNC(=O)[C@H](CC(=O)O)NC(=O)[C@H](CCC(N)=O)NC(=O)[C@H](CC(C)C)NC(=O)[C@H](CCCCN)NC(=O)[C@H](CCCCN)NC(=O)[C@@H](N)CCCNC(=N)N)cc2)c1)C(C)C)C(C)C)C(=O)O [SP1] (H-RKKLQD[X3]VHNFVAL-OH) | 
7 | 25 µM (≈ 39.8 µg/mL) | CC(C)C[C@H](NC(=O)[C@H](C)NC(=O)[C@@H](NC(=O)[C@H](Cc1ccccc1)NC(=O)[C@H](CC(N)=O)NC(=O)[C@H](Cc1c[nH]cn1)NC(=O)c1cccc(N=Nc2ccc(CNC(=O)[C@H](CCC(N)=O)NC(=O)[C@H](CC(C)C)NC(=O)[C@H](CCCCN)NC(=O)[C@H](CCCCN)NC(=O)[C@@H](N)CCCNC(=N)N)cc2)c1)C(C)C)C(=O)O [SP4] (H-RKKLQ[X3]HNFVAL-OH) | 
